Measurements reported in patent US10106501B2, “Nuclear receptor modulators” (AbbVie Inc., priority 2015, dated 2018).

These compounds were tested against T1, chimeric human RORγ-Gal4 receptor (Homo sapiens, UniProt P51449) (assay: transient transactivation assay (RORγ-Gal4 luciferase reporter)). Settings: Cos-7 cells transfected with RORγ-Gal4 and 5Gal4 pGL3 TK Luc reporter; overnight incubation; T0901317 at 10^-5 M as reference; read-out: IC50.
T1 sequence (P51449 269-508 limits assumed): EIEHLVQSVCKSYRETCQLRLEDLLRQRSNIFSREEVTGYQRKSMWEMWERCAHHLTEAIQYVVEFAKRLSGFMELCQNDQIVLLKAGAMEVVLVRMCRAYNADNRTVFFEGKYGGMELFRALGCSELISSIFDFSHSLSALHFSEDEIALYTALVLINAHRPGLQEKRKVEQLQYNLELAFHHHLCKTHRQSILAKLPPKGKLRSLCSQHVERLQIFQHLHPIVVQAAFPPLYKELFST
Assay type: cell-based
`Cc1c(C#N)ccc2c1cc(Cc1c(Cl)ccc(C(=O)N3CCOCC3)c1Cl)n2C` [EX, 2-(2,6-dichloro-3-(morpholine-4-carbonyl)benzyl)-1,4-dimethyl-1H-indole-5-carbonitrile] gave an IC50 of less than 100 nM. In the case of `Cc1cc(C(F)(F)F)cc2occ(Cc3c(Cl)ccc(C(=O)N4CCC(CC(=O)O)CC4)c3Cl)c12` [DZ, 2-(1-(2,4-dichloro-3-((4-methyl-6-(trifluoromethyl)benzofuran-3-yl)methyl)benzoyl)piperidin-4-yl)acetic acid], the IC50 is reported as less than 100 nM. With `Cc1cn(Cc2c(Cl)cnc(C(=O)N3CCC(CC(=O)O)CC3)c2Cl)c2c(C)cc(C(F)(F)F)cc12` [Example FR, 2-(1-(3,5-dichloro-4-((3,7-dimethyl-5-(trifluoromethyl)-1H-indol-1-yl)methyl)picolinoyl)piperidin-4-yl)acetic acid] the IC50 was less than 100 nM. With `Cc1cc(C(F)(F)F)cc2c1cc(Cc1c(Cl)ccc(C(=O)N3CC(CC(=O)O)C3)c1Cl)n2C` [Example B-9] the IC50 was less than 100 nM. With `CCn1c(Cc2c(Cl)ccc(C(=O)N3CCOCC3)c2Cl)nc2c(C)cc(C#N)cc21` [CG, 2-(2,6-dichloro-3-(morpholine-4-carbonyl)benzyl)-1-ethyl-4-methyl-1H-benzo[d]imidazole-6-carbonitrile] the IC50 was 500 to 1000 nM. Work on `Cc1cc2nc(Cc3c(Cl)ccc(C(=O)N4CCOCC4)c3Cl)c(C)n2nc1C#N` [DB, 2-(2,6-dichloro-3-(morpholine-4-carbonyl)benzyl)-3,7-dimethylimidazo[1,2-b]pyridazine-6-carbonitrile] yielded an IC50 of 1000 to 10000 nM. `COCCC1CCN(C(=O)c2ccc(Cl)c(Cc3nc4c(C)cc(C(F)(F)F)cn4c3C)c2Cl)CC1` [CT-7] was tested, and the IC50 was less than 100 nM. In the case of `Cn1c(Cc2c(Cl)ccc(C(=O)N3CCC(C(=O)O)CC3)c2Cl)cc2c(F)cc(C3CC3)cc21` [Example FN, 1-(2,4-dichloro-3-((6-cyclopropyl-4-fluoro-1-methyl-1H-indol-2-yl)methyl)benzoyl)piperidine-4-carboxylic acid], the IC50 is reported as less than 100 nM. In the case of `Cc1cn(C(=O)c2c(Cl)ccc(C(=O)N3CCC(CC(=O)O)CC3)c2Cl)c2c(C)cc(C#N)cc12` [DN, 2-(1-(2,4-dichloro-3-(5-cyano-3,7-dimethyl-1H-indole-1-carbonyl)benzoyl)piperidin-4-yl)acetic acid], the IC50 is reported as less than 100 nM. In the case of `Cc1cc(C(F)(F)F)cc2c1cc(Cc1c(Cl)ccc(C(=O)N3CCC(C)(C(=O)O)CC3)c1Cl)n2C` [Example B-13], the IC50 is reported as 100 to 500 nM. Work on `Cc1cc(C#N)cc2c1nc(Cc1c(Cl)ccc(C(=O)N3CCC(C4COC4)CC3)c1Cl)n2C` [BN-12] yielded an IC50 of 100 to 500 nM. For `Cc1cc(C#N)cc2c1cc(Cc1c(Cl)ccc(C(=O)N3CCN(C(C)C)CC3)c1Cl)n2C` [AA-11], the IC50 was less than 100 nM. Compound `Cn1c(Cc2c(Cl)ccc(C(=O)N3CCC(C(=O)O)CC3)c2Cl)cc2c(F)cc(C(F)(F)F)cc21` [FE-2] has an IC50 of less than 100 nM. Work on `O=C(O)CC1CCN(C(=O)c2ccc(Cl)c(Cn3ccc4cccc(Cl)c43)c2Cl)CC1` [EI-3] yielded an IC50 of less than 100 nM. In the case of `Cc1cc(C#N)cc2c1cc(Cc1c(Cl)ccc(C(=O)N3CC(N4CCCC4)C3)c1Cl)n2C` [AA-16], the IC50 is reported as 100 to 500 nM. Work on `Cc1cc(C(F)(F)F)cc2c1nc(Cc1c(Cl)ccc(C(=O)N3CCC4(CCOC4)CC3)c1Cl)n2C` [BJ-8] yielded an IC50 of less than 100 nM. `Cc1cc(C(=O)N(C)C)cc2c1cc(Cc1c(Cl)ccc(C(=O)N3CCOCC3)c1Cl)n2C` [Example FO, 2-[[2,6-dichloro-3-(morpholine-4-carbonyl)phenyl]methyl]-N,N,1,4-tetramethyl-indole-6-carboxamide] gave an IC50 of less than 100 nM. `Cc1cc(C#N)cc2c1cc(Cc1c(Cl)ccc(O[C@H]3CC[C@@H](C(=O)O)C3)c1Cl)n2C` (relative stereo) [Example AG1, cis-3-(2,4-dichloro-3-((6-cyano-1,4-dimethyl-1H-indol-2-yl)methyl)phenoxy)cyclopentanecarboxylic acid] showed an IC50 of 500 to 1000 nM. For `Cc1cc(C(F)(F)F)cc2c1nc(Cc1c(Cl)ccc(CN3CCC4(CCOC4)CC3)c1Cl)n2C` [BW-8], the IC50 was 100 to 500 nM. Compound `Cc1cc(C#N)cc2c1cc(Cc1c(Cl)ccc(C(=O)N3CCC(C(C)O)CC3)c1Cl)n2C` (stereo not drawn) [AA-1] has an IC50 of less than 100 nM. `COC1CN(C(=O)c2ccc(Cl)c(Cc3cc4c(C)cc(C#N)cc4n3C)c2Cl)C1` [AA-21] gave an IC50 of 100 to 500 nM. `O=C(O)CC1CCN(C(=O)c2ccc(Cl)c(Cn3ccc4cc(C5CC5)cc(F)c43)c2Cl)CC1` [EN, 2-(1-(2,4-dichloro-3-((5-cyclopropyl-7-fluoro-1H-indol-1-yl)methyl)benzoyl)piperidin-4-yl)acetic acid] was tested, and the IC50 was less than 100 nM. `COCCC1CCN(C(=O)c2ccc(Cl)c(Cc3nc4c(C)cc(C(F)(F)F)cc4n3C)c2Cl)CC1` [BJ-18] gave an IC50 of less than 100 nM. `O=C(O)CC1CCN(C(=O)c2ccc(Cl)c(C(=O)n3ccc4cc(C5CC5)cc(F)c43)c2Cl)CC1` [EO, 2-(1-(2,4-dichloro-3-(5-cyclopropyl-7-fluoro-1H-indole-1-carbonyl)benzoyl)piperidin-4-yl)acetic acid] showed an IC50 of less than 100 nM. In the case of `Cn1c(Cc2c(Cl)ccc(C(=O)N3CCC(CC(=O)O)CC3)c2Cl)cc2c(Cl)cc(C#N)cc21` [Example R, 2-(1-(2,4-dichloro-3-((4-chloro-6-cyano-1-methyl-1H-indol-2-yl)methyl)benzoyl)piperidin-4-yl)acetic acid], the IC50 is reported as less than 100 nM. Compound `COc1cc(C)c2cc(Cc3c(Cl)ccc(C(=O)N4CCC(CC(=O)O)CC4)c3Cl)n(C)c2c1` [Example FD, 2-(1-(2,4-dichloro-3-((6-methoxy-1,4-dimethyl-1H-indol-2-yl)methyl)benzoyl)piperidin-4-yl)acetic acid] has an IC50 of less than 100 nM. In the case of `Cn1c(Cc2c(Cl)ccc(C(=O)N3CCC(O)CC3)c2Cl)cc2ccc(C(F)(F)F)cc21` [L, (2,4-dichloro-3-((1-methyl-6-(trifluoromethyl)-1H-indol-2-yl)methyl)phenyl)(4-hydroxypiperidin-1-yl)methanone], the IC50 is reported as less than 100 nM. Compound `Cc1cc(C(F)(F)F)cc2c1nc(Cc1c(Cl)ccc(C(=O)N3CCC(CC(C)O)CC3)c1Cl)n2C` (stereo not drawn) [BJ-19] has an IC50 of 100 to 500 nM. With `Cc1cc(C(F)(F)F)cc2c1nc(Cc1c(Cl)ccc(C(=O)N3CC4(COC4)C3)c1Cl)n2C` [BJ-28] the IC50 was 1000 to 10000 nM. `Cc1cc(C(F)(F)F)cc2c1cc(Cc1c(Cl)ccc(C(=O)N[C@H]3CC[C@@H](C(=O)O)CC3)c1Cl)n2C` [Example B-25] was tested, and the IC50 was less than 100 nM. For `Cc1cc(C(F)(F)F)cc2c1cc(Cc1c(Cl)ccc(C(=O)N3CCC(S(C)(=O)=O)CC3)c1Cl)n2C` [Example A1-11], the IC50 was less than 100 nM. Work on `Cc1cc(C(F)(F)F)cc2c1nc(Cc1c(Cl)ccc(CN3CCC(CO)CC3)c1Cl)n2C` [BW-14] yielded an IC50 of 100 to 500 nM. For `Cc1cc(C#N)nc2c1cc(Cc1c(Cl)ccc(C(=O)N3CCC(C4COC4)CC3)c1Cl)n2C` [CL-2], the IC50 was less than 100 nM. `Cc1cc(C(F)(F)F)cc2c1cc(Cc1c(Cl)ccc(C(=O)N3C[C@@H]4C(C(=O)O)[C@@H]4C3)c1Cl)n2C` (stereo partly drawn) [Example B-8] showed an IC50 of less than 100 nM. `Cc1cc(OC(F)(F)F)cc2c1c(Cc1c(Cl)ncc(C(=O)N3CCC(CC(=O)O)CC3)c1Cl)cn2C` [DY, 2-[1-[4,6-dichloro-5-[[1,4-dimethyl-6-(trifluoromethoxy)-1H-indol-3-yl]methyl]pyridine-3-carbonyl]-4-piperidyl]acetic acid] gave an IC50 of less than 100 nM. In the case of `Cc1cn(Cc2c(Cl)ccc(C(=O)N3CCC(CC(=O)O)CC3)c2Cl)c2c(C)cc(C(F)(F)F)cc12` [DI, 2-(1-(2,4-dichloro-3-((3,7-dimethyl-5-(trifluoromethyl)-1H-indol-1-yl)methyl)benzoyl)piperidin-4-yl)acetic acid], the IC50 is reported as less than 100 nM. In the case of `Cc1cc(C#N)cc2c1cc(Cc1c(Cl)ccc(O[C@H]3CC[C@H](C(=O)O)CC3)c1Cl)n2C` [Example AF, trans-4-(2,4-dichloro-3-((6-cyano-1,4-dimethyl-1H-indol-2-yl)methyl)phenoxy)cyclohexanecarboxylic acid], the IC50 is reported as 100 to 500 nM. In the case of `Cc1cc(C#N)cc2c1cc(Cc1c(Cl)cnc(C(=O)N3CCN(C4COC4)CC3)c1Cl)n2C` [BF-4], the IC50 is reported as 100 to 500 nM. `Cc1cc(C(F)(F)F)cc2c1c(Cc1c(Cl)ccc(C(=O)N3CCC(CC(=O)O)CC3)c1Cl)cn2C` [F, 2-(1-(2,4-dichloro-3-((1,4-dimethyl-6-(trifluoromethyl)-1H-indol-3-yl)methyl)benzoyl)piperidin-4-yl)acetic acid] gave an IC50 of less than 100 nM. For `COCCC1CCN(Cc2ccc(Cl)c(Cc3nc4c(C)cc(C(F)(F)F)cc4n3C)c2Cl)CC1` [Example BW, 2-[[2,6-dichloro-3-[[4-(2-methoxyethyl)-1-piperidyl]methyl]phenyl]methyl]-1,4-dimethyl-6-(trifluoromethyl)benzimidazole], the IC50 was 100 to 500 nM. Compound `Cc1cn(Cc2c(Cl)ccc(C(=O)N3CCOCC3)c2Cl)c2c(C)nc(C(F)(F)F)cc12` [ET, (2,4-dichloro-3-((3,7-dimethyl-5-(trifluoromethyl)-1H-pyrrolo[2,3-c]pyridin-1-yl)methyl)phenyl)(morpholino)methanone] has an IC50 of less than 100 nM. In the case of `Cc1cc(C(F)(F)F)nn2c(C)c(Cc3c(Cl)ccc(C(=O)N4CCOCC4)c3Cl)nc12` [CZ, (2,4-dichloro-3-((3,8-dimethyl-6-(trifluoromethyl)imidazo[1,2-b]pyridazin-2-yl)methyl)phenyl)(morpholino)methanone], the IC50 is reported as less than 100 nM. Work on `Cc1cc(C(F)(F)F)cc2c1nc(C(=O)c1c(Cl)ccc(C(=O)N3CCOCC3)c1Cl)n2C` [Example BS, (2,4-dichloro-3-(1,4-dimethyl-6-(trifluoromethyl)-1H-benzo[d]imidazole-2-carbonyl)phenyl)(morpholino)methanone] yielded an IC50 of 100 to 500 nM. With `Cc1cc(C(F)(F)F)cc2c1cc(C(=O)c1c(Cl)ncc(C(=O)N3CCC(CC(=O)O)CC3)c1Cl)n2C` [Example FG, 2-(1-(4,6-dichloro-5-(1,4-dimethyl-6-(trifluoromethyl)-1H-indole-2-carbonyl)nicotinoyl)piperidin-4-yl)acetic acid] the IC50 was less than 100 nM. `Cc1cc(C#N)cc2c1nc(Cc1c(Cl)ccc(C(=O)N3CCN(C4COC4)CC3)c1Cl)n2C` [BN-11] gave an IC50 of 500 to 1000 nM.
